Data as given in PubChem BioAssay AID248 (DTP/NCI, 2004).
“And” between values parts separate entries of the source, which are not always exact repeats. Equal entries are not always repeated. Inconclusive results and toxic doses are left out. Rule as the data show it: active = T/C of 150% or more; inactive = T/C below 125%.

System: L1210 leukemia ip in BDF1 mice, survival T/C
Assay: NCI In Vivo Anticancer Drug Screen. Data for tumor model L1210 Leukemia (intraperitoneal) in B6D2F1 (BDF1) mice
Settings: endpoint: mean survival time, higher = longer survival
Method in brief: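 Tumor cells were implanted, animals were treated, and survival was followed. The result divides the treated measurement by the vehicle-control measurement.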

[1] = dose: 100.0 mg/kg/injection, schedule: Q01DX001 (ip), vehicle: Klucel (hydroxypropylcellulose) (HPC)
[2] = dose: 100.0 mg/kg/injection, schedule: Q04DX003 (ip), vehicle: Klucel (hydroxypropylcellulose) (HPC)
[3] = dose: 100.0 mg/kg/injection, schedule: Q04DX003 (ip), vehicle: saline with Tween-80
[4] = dose: 200.0 mg/kg/injection, schedule: Q01DX001 (ip), vehicle: Klucel (hydroxypropylcellulose) (HPC)
[5] = dose: 200.0 mg/kg/injection, schedule: Q01DX009 (ip), vehicle: saline
[6] = dose: 200.0 mg/kg/injection, schedule: Q04DX003 (ip), vehicle: Klucel (hydroxypropylcellulose) (HPC)
[7] = dose: 200.0 mg/kg/injection, schedule: Q04DX003 (ip), vehicle: saline with Tween-80
[8] = dose: 400.0 mg/kg/injection, schedule: Q01DX001 (ip), vehicle: Klucel (hydroxypropylcellulose) (HPC)
[9] = dose: 400.0 mg/kg/injection, schedule: Q01DX009 (ip), vehicle: saline
[10] = dose: 400.0 mg/kg/injection, schedule: Q04DX003 (ip), vehicle: Klucel (hydroxypropylcellulose) (HPC)
[11] = dose: 400.0 mg/kg/injection, schedule: Q04DX003 (ip), vehicle: saline with Tween-80
[12] = dose: 100.0 mg/kg/injection, schedule: Q01DX Z (ip), vehicle: methylcellulose (MC)
[13] = dose: 200.0 mg/kg/injection, schedule: Q01DX Z (ip), vehicle: methylcellulose (MC)
[14] = dose: 200.0 mg/kg/injection, schedule: Q01DX009 (ip), vehicle: saline with Tween-80
[15] = dose: 100.0 mg/kg/injection, schedule: Q01DX009 (ip), vehicle: saline with Tween-80
[16] = dose: 50.0 mg/kg/injection, schedule: Q01DX001 (ip), vehicle: saline
[17] = dose: 100.0 mg/kg/injection, schedule: Q01DX001 (ip), vehicle: saline
[18] = dose: 200.0 mg/kg/injection, schedule: Q01DX001 (ip), vehicle: saline
[19] = dose: 25.0 mg/kg/injection, schedule: Q01DX009 (ip), vehicle: saline
[20] = dose: 50.0 mg/kg/injection, schedule: Q01DX009 (ip), vehicle: saline
[21] = dose: 50.0 mg/kg/injection, schedule: Q04DX003 (ip), vehicle: saline
[22] = dose: 100.0 mg/kg/injection, schedule: Q01DX009 (ip), vehicle: saline
[23] = dose: 100.0 mg/kg/injection, schedule: Q04DX003 (ip), vehicle: saline
[24] = dose: 200.0 mg/kg/injection, schedule: Q04DX003 (ip), vehicle: saline
[25] = dose: 75.0 mg/kg/injection, schedule: Q01DX001 (ip), vehicle: saline
[26] = dose: 400.0 mg/kg/injection, schedule: Q01DX001 (ip), vehicle: saline

Measured: T/C

CCCC(=O)CC(C)=O.CCCC(=O)CC(C)=O.[Cu]
inactive: dose: 5.0 mg/kg/injection, schedule: Q04DX003 (ip), vehicle: Klucel (hydroxypropylcellulose) (HPC) 95 % of control | dose: 6.0 mg/kg/injection, schedule: Q01DX009 (ip), vehicle: Klucel (hydroxypropylcellulose) (HPC) 92 % of control | dose: 10.0 mg/kg/injection, schedule: Q04DX003 (ip), vehicle: Klucel (hydroxypropylcellulose) (HPC) 98 % of control | dose: 12.0 mg/kg/injection, schedule: Q01DX009 (ip), vehicle: Klucel (hydroxypropylcellulose) (HPC) 101 % of control | dose: 20.0 mg/kg/injection, schedule: Q04DX003 (ip), vehicle: Klucel (hydroxypropylcellulose) (HPC) 96 % of control | dose: 40.0 mg/kg/injection, schedule: Q04DX003 (ip), vehicle: Klucel (hydroxypropylcellulose) (HPC) 93 % of control

CCSC(C(O)C(O)C(O)C(O)CO)n1ccc(=O)[nH]c1=O (configuration not stated)
inactive: [1] 100 % of control | [2] 88 % of control | [3] 103 % of control | [4] 100 % of control | [5] 93 % of control | [6] 93 % of control | [7] 94 % of control | [8] 102 % of control | [9] 94 % of control | [10] 87 % of control | [11] 92 % of control

Clc1ccc(CSc2ncc(Br)c(N3CC3)n2)cc1
inactive: [12] 93 % of control | [13] 88 % of control

Nc1cnccc1NCCc1cccc(O)c1
inactive: dose: 12.5 mg/kg/injection, schedule: Q01DX009 (ip), vehicle: saline with Tween-80 97 % of control | dose: 25.0 mg/kg/injection, schedule: Q01DX009 (ip), vehicle: saline with Tween-80 103 % of control | dose: 50.0 mg/kg/injection, schedule: Q01DX009 (ip), vehicle: saline with Tween-80 89 % of control | [14] 88 % of control

c1ccc([P+](c2ccccc2)(c2ccccc2)c2ccc([P+](c3ccccc3)(c3ccccc3)c3ccccc3)cc2)cc1
inactive: dose: 3.13 mg/kg/injection, schedule: Q04DX003 (ip), vehicle: saline 106 % of control | dose: 6.25 mg/kg/injection, schedule: Q04DX003 (ip), vehicle: saline 109 % of control | dose: 12.5 mg/kg/injection, schedule: Q04DX003 (ip), vehicle: saline 93 % of control and 102 % of control

Cc1ccc(C)c(-n2c(-c3ccc(Br)cc3)csc2=NC(=O)c2ccccc2F)c1
inactive: [15] 102 % of control | [3] 101 % of control | [14] 101 % of control | [7] 98 % of control | dose: 400.0 mg/kg/injection, schedule: Q01DX009 (ip), vehicle: saline with Tween-80 93 % of control | [11] 102 % of control

CC(NC(=O)OCc1ccccc1)C(=O)NC(CCC(=O)OCc1ccccc1)C(=O)OCc1ccccc1 (configuration not stated)
inactive: [3] 93 % of control | [7] 92 % of control | [11] 92 % of control

Nc1ccccc1SC1CC(=O)N(c2ccc(Oc3ccc(Cl)cc3)cc2)C1=O (configuration not stated)
inactive: dose: 75.0 mg/kg/injection, schedule: Q01DX009 (ip), vehicle: Klucel (hydroxypropylcellulose) (HPC) 87 % of control | dose: 150.0 mg/kg/injection, schedule: Q01DX009 (ip), vehicle: Klucel (hydroxypropylcellulose) (HPC) 98 % of control | dose: 300.0 mg/kg/injection, schedule: Q01DX009 (ip), vehicle: Klucel (hydroxypropylcellulose) (HPC) 92 % of control

CCCCCC(C)(O)CCC (configuration not stated)
inactive: [16] 93 % of control | [17] 93 % of control | [18] 93 % of control

COC(=O)C1=C(NC(=O)Nc2ccc(Cl)cc2)OC(C)(C)C1c1ccc(Cl)cc1 (configuration not stated)
inactive: dose: 12.5 mg/kg/injection, schedule: Q01DX001 (ip), vehicle: saline 92 % of control | dose: 12.5 mg/kg/injection, schedule: Q01DX009 (ip), vehicle: saline 86 % of control | dose: 12.5 mg/kg/injection, schedule: Q04DX003 (ip), vehicle: acetone 93 % of control | dose: 25.0 mg/kg/injection, schedule: Q01DX001 (ip), vehicle: saline 87 % of control | [19] 90 % of control | dose: 25.0 mg/kg/injection, schedule: Q04DX003 (ip), vehicle: acetone 100 % of control | [16] 86 % of control | dose: 50.0 mg/kg/injection, schedule: Q04DX003 (ip), vehicle: acetone 96 % of control

Cc1ccc(C(C)C)c(OCC2C(=O)C3CCN2CC3)c1 (configuration not stated)
inactive: dose: 12.5 mg/kg/injection, schedule: Q04DX003 (ip), vehicle: Klucel (hydroxypropylcellulose) (HPC) 101 % of control | dose: 25.0 mg/kg/injection, schedule: Q04DX003 (ip), vehicle: Klucel (hydroxypropylcellulose) (HPC) 101 % of control | dose: 50.0 mg/kg/injection, schedule: Q04DX003 (ip), vehicle: Klucel (hydroxypropylcellulose) (HPC) 95 % of control

Cc1[nH]c(=S)sc1C
inactive: dose: 50.0 mg/kg/injection, schedule: Q01DX001 (ip), vehicle: carboxymethylcellulose (CMC) 100 % of control | [20] 97 % of control | [21] 92 % of control | dose: 100.0 mg/kg/injection, schedule: Q01DX001 (ip), vehicle: carboxymethylcellulose (CMC) 88 % of control | [22] 97 % of control | [23] 101 % of control | [24] 88 % of control

CCOC(=O)C(CO)NS(=O)(=O)c1ccc(C)cc1 (configuration not stated)
inactive: [25] 103 % of control | dose: 75.0 mg/kg/injection, schedule: Q04DX003 (ip), vehicle: saline 102 % of control | dose: 150.0 mg/kg/injection, schedule: Q01DX001 (ip), vehicle: saline 106 % of control | dose: 150.0 mg/kg/injection, schedule: Q04DX003 (ip), vehicle: saline 103 % of control | dose: 300.0 mg/kg/injection, schedule: Q01DX001 (ip), vehicle: saline 103 % of control | dose: 300.0 mg/kg/injection, schedule: Q04DX003 (ip), vehicle: saline 97 % of control

OC(c1ccccc1)c1nnc(C(O)c2ccccc2)nn1 (configuration not stated)
inactive: [1] 92 % of control | [2] 94 % of control | [4] 95 % of control | [6] 93 % of control | [8] 95 % of control | [10] 100 % of control

CN(C)CCOC(=O)COc1ccc(Cl)cc1
inactive: [19] 96 % of control | dose: 25.0 mg/kg/injection, schedule: Q04DX003 (ip), vehicle: saline 93 % of control | [20] 100 % of control | [21] 98 % of control | [22] 97 % of control | [23] 90 % of control | [5] 96 % of control | [24] 114 % of control | [9] 96 % of control | dose: 400.0 mg/kg/injection, schedule: Q04DX003 (ip), vehicle: saline 101 % of control

COc1ccc(Cc2ccc(OC)cc2)cc1
inactive: [16] 96 % of control | [17] 96 % of control | [18] 96 % of control | [26] 90 % of control

CCC1(Cc2ccccc2)C(=O)NC(=S)N(C)C1=O (configuration not stated)
inactive: [25] 106 % of control

CN(C)C1(Cc2ccccc2)c2ccccc2-c2ccccc21
inactive: dose: 50.0 mg/kg/injection, schedule: Q04DX002 (ip), vehicle: Klucel (hydroxypropylcellulose) (HPC) 103 % of control | dose: 100.0 mg/kg/injection, schedule: Q04DX002 (ip), vehicle: Klucel (hydroxypropylcellulose) (HPC) 106 % of control | dose: 200.0 mg/kg/injection, schedule: Q04DX002 (ip), vehicle: Klucel (hydroxypropylcellulose) (HPC) 95 % of control

CCN(CC)C1=C(Cl)C(=O)c2ccccc2C1=O
inactive: [15] 93 % of control | [14] 93 % of control

CCCNC(C)CC(=O)OCC (configuration not stated)
inactive: [12] 96 % of control | [13] 94 % of control

C/C(=C\COC1CCCCO1)CCC1OC1(C)C (configuration not stated)
inactive: [17] 103 % of control | [22] 108 % of control | [18] 100 % of control | [5] 98 % of control | [26] 100 % of control | [9] 101 % of control

Cc1nc(-c2ccccc2)[nH]c(=O)c1CC(O)c1ccccc1 (configuration not stated)
inactive: [2] 86 % of control | [6] 92 % of control | [10] 87 % of control
